Experimental data published in paper PMC8424369 (Journal of Pharmaceutical Analysis, 2020).

Assays:
Caco-2 cell monolayer = assay: Bidirectional transport experiments on Caco-2 cell monolayer model; assay type: in vitro ADME, human; conditions: for Intestinal absorption / transport mechanism speculated from ER: comparison of Papp in two directions; for Papp(AP-BL): AP to BL; for Papp(AP-BL) / Recovery (%) BL-AP / Papp(BL-AP) / ER (efflux ratio, Papp(BL-AP)/Papp(AP-BL)): donor 10 μM, 3 h; for Papp(AP-BL) / Recovery (%) BL-AP / Papp(BL-AP): 37 °C; for Papp(AP-BL) / Papp(BL-AP): single time point, mean ± S.D. (n=3); for Recovery (%) BL-AP / Papp(BL-AP): BL to AP
[1] = as above; assay type: in vitro ADME, human; conditions: human, donor 10 μM, 3 h
[2] = Stability of QC samples in transport medium; assay type: physicochemical; conditions: HBSS, n=3
[3] = high QC conc. (SSs 100, SGF 1000, SGD 800, SGG 2200 nM)
[4] = low QC conc. (SSs 1, SGF 10, SGD 8, SGG 22 nM)
[5] = middle QC conc. (SSs 10, SGF 100, SGD 80, SGG 220 nM)

SMILES	Intestinal absorption / transport mechanism speculated from ER (Caco-2 cell monolayer)	Stability, Autosampler (4 °C for 8 h), RE (%) [2, 3] [%]	Stability, Bench-top (room temperature for 6 h), RE (%) [2, 3] [%]	Stability, Freeze-thaw (three cycles at −80 °C), RE (%) [2, 3] [%]	Stability, Processed samples (−80 °C for 8 h), RE (%) [2, 3] [%]	Stability, Autosampler (4 °C for 8 h), RE (%) [2, 4] [%]	Stability, Bench-top (room temperature for 6 h), RE (%) [2, 4] [%]	Stability, Freeze-thaw (three cycles at −80 °C), RE (%) [2, 4] [%]	Stability, Processed samples (−80 °C for 8 h), RE (%) [2, 4] [%]	Stability, Autosampler (4 °C for 8 h), RE (%) [2, 5] [%]	Stability, Bench-top (room temperature for 6 h), RE (%) [2, 5] [%]	Stability, Freeze-thaw (three cycles at −80 °C), RE (%) [2, 5] [%]	Stability, Processed samples (−80 °C for 8 h), RE (%) [2, 5] [%]	Papp(AP-BL) (Caco-2 cell monolayer)	Recovery (%) BL-AP (Caco-2 cell monolayer) [%]	Papp(BL-AP) (Caco-2 cell monolayer)	ER (efflux ratio, Papp(BL-AP)/Papp(AP-BL)) (Caco-2 cell monolayer)	other results
C[C@H]1O[C@@H](O[C@H]2CC[C@@]3(C)[C@@H](CC[C@]4(C)[C@@H]3C=C[C@]35OC[C@@]6(CCC(C)(C)C[C@H]63)[C@@H](O)C[C@]54C)[C@]2(C)CO)[C@H](O)[C@@H](O[C@@H]2O[C@H](CO)[C@@H](O)[C@H](O)[C@H]2O)[C@H]1O [SSa]	passive transport	−1.88	0.62	1.36	−1.50	−3.60	−1.06	−7.46	−10.40	0.91	2.00	8.65	2.87					efflux ratio at 3 h, 10 μM ([1]; Caco-2, ER (efflux ratio, Papp(BL-AP)/Papp(AP-BL))): 1.15; Papp A→B at 3 h, 10 μM ([1]; Caco-2, Papp(AP-BL), AP to BL, 37 °C, single time point, mean ± S.D. (n=3)): 0.088 ± 0.014 ×10⁻⁶ cm/s; Papp B→A at 3 h, 10 μM ([1]; Caco-2, Papp(BL-AP), BL to AP, 37 °C, single time point, mean ± S.D. (n=3)): 0.102 ± 0.031 ×10⁻⁶ cm/s; recovery at 3 h, 10 μM ([1]; Caco-2, Recovery (%) BL-AP, BL to AP, 37 °C): 77.6%
C[C@H]1O[C@@H](O[C@H]2CC[C@@]3(C)[C@@H](CC[C@]4(C)[C@@H]3C=CC3=C5CC(C)(C)CC[C@]5(CO)[C@H](O)C[C@]34C)[C@]2(C)CO)[C@H](O)[C@@H](O[C@@H]2O[C@H](CO)[C@@H](O)[C@H](O)[C@H]2O)[C@H]1O [SSb2]	passive transport	5.11	−0.27	8.34	4.04	0.92	0.01	2.62	3.52	0.35	5.34	3.06	6.93	0.051 ± 0.010 × 10^−6 cm/s	68.12	0.055 ± 0.011 × 10^−6 cm/s	1.09	
C[C@H]1O[C@@H](O[C@H]2CC[C@@]3(C)[C@@H](CC[C@]4(C)[C@@H]3C=C[C@]35OC[C@@]6(CCC(C)(C)C[C@H]63)[C@H](O)C[C@]54C)[C@]2(C)CO)[C@H](O)[C@@H](O[C@@H]2O[C@H](CO)[C@@H](O)[C@H](O)[C@H]2O)[C@H]1O [SSd]	certain uptake transporters were probably involved	−0.92	−8.09	12.04	−5.31	−5.69	0.83	−1.11	1.51	−0.46	8.37	5.76	−0.37	0.312 ± 0.020 × 10^−6 cm/s	68.96	0.079 ± 0.012 × 10^−6 cm/s	0.25	
